From ChEMBL document CHEMBL5058564, “EUbOPEN Chemogenomics Library 2 (Incucyte)” (2022)

Legend:
Type in all cases: toxicity, cell-based
HEK-293T = test: Incucyte cell viability with HEK293T; conditions: human, 10 µM, compound concentration 10 uM
Fibroblast = test: Incucyte cell viability with human fibroblast; conditions: 10 µM, compound concentration 10 uM
U2OS = test: Incucyte cell viability with U2OS; conditions: human, 10 µM, compound concentration 10 uM
[1] = 0 h, replicate number 1, timepoint 0 hours
[2] = 0 h, replicate number 2, timepoint 0 hours
[3] = 6 h, replicate number 1, timepoint 6 hours
[4] = 6 h, replicate number 2, timepoint 6 hours
[5] = 12 h, replicate number 1, timepoint 12 hours
[6] = 12 h, replicate number 2, timepoint 12 hours
[7] = 18 h, replicate number 1, timepoint 18 hours
[8] = 18 h, replicate number 2, timepoint 18 hours
[9] = 24 h, replicate number 1, timepoint 24 hours
[10] = 24 h, replicate number 2, timepoint 24 hours
Further: unitless GR value; below 1 slowed growth and below 0 cell loss.

Compound | Growth Rate (HEK-293T; [2]) | Growth Rate (HEK-293T; [3]) | Growth Rate (HEK-293T; [4]) | Growth Rate (HEK-293T; [5]) | Growth Rate (HEK-293T; [6]) | Growth Rate (HEK-293T; [7]) | Growth Rate (HEK-293T; [9]) | Growth Rate (HEK-293T; [10]) | Growth Rate (Fibroblast; [2]) | Growth Rate (Fibroblast; [3]) | Growth Rate (Fibroblast; [4]) | Growth Rate (Fibroblast; [5]) | Growth Rate (Fibroblast; [6]) | Growth Rate (Fibroblast; [7]) | Growth Rate (Fibroblast; [9]) | Growth Rate (Fibroblast; [10]) | Growth Rate (U2OS; [7]) | Growth Rate (U2OS; [8]) | Growth Rate (U2OS; [9]) | Growth Rate (U2OS; [6]) | further results
CC(C)(C)c1ccc(CSc2cnn(C(C)(C)C)c(=O)c2Cl)cc1 [PYRIDABEN] | 0.94 | -0.14 | -0.1 | 0.01 | -0.01 | 0.13 | 0.1 | 0.22 | -0.26 | -0.33 | 0.56 | -0.26 | 0.81 | -0.13 | -0.12 | 0.08 | 0.62 | 0.92 | 0.86 | – | Growth Rate (HEK-293T; [1]): 0.63; Growth Rate (HEK-293T; [8]): 0.2; Growth Rate (Fibroblast; [8]): 0.71; Growth Rate (U2OS; [2]): -1; Growth Rate (U2OS; [10]): 0.96
CCCCC/C=C\C/C=C\C/C=C\C/C=C\CCCC(=O)OC(CO)CO [2-ARACHIDONOYLGLYCEROL] | – | 0.94 | – | 0.72 | 0.51 | 0.64 | 0.67 | 0.75 | – | – | – | – | – | – | 0.93 | – | – | – | 0.81 | 0.9 | Growth Rate (HEK-293T; [8]): 0.69; Growth Rate (U2OS; [2]): 0.65; Growth Rate (U2OS; [10]): 0.99
O=C(NC[C@@H]1[C@H]2CN(C(=O)OCc3cc(C(F)(F)F)cc(C(F)(F)F)c3)C[C@@H]12)c1ccc2[nH]nnc2c1 [BI 2545] | – | 0.33 | 0.67 | 0.61 | 0.92 | 0.65 | 0.64 | 0.88 | – | -0.83 | -0.59 | -0.64 | -0.1 | -0.55 | -0.35 | 0.57 | 0.99 | – | – | – | Growth Rate (Fibroblast; [8]): 0.22; Growth Rate (U2OS; [2]): 0.37; Growth Rate (U2OS; [5]): 0.93
CN(C(=O)/C=C/c1ccoc1)[C@@H]1CC[C@@]2(O)[C@H]3Cc4ccc(O)c5c4[C@@]2(CCN3CC2CC2)[C@H]1O5 [NALFURAFINE] | 0.49 | – | – | – | 0.91 | – | – | 0.91 | 0.55 | – | – | – | – | – | – | – | 0.68 | 0.88 | 0.77 | 1 | Growth Rate (HEK-293T; [1]): 0.87; Growth Rate (U2OS; [1]): 0.56; Growth Rate (U2OS; [2]): -0.09; Growth Rate (U2OS; [3]): 0.82
COc1ncc2cc(C(=O)Nc3cc(C(=O)NCc4cccc(Cl)c4)ccc3Cl)c(=O)[nH]c2n1 | – | 0.48 | 0.93 | 0.55 | 0.83 | 0.64 | 0.66 | 0.93 | 0.82 | -0.08 | -0.3 | 0.48 | 0.41 | 0.51 | 0.76 | – | 0.51 | 0.67 | 0.75 | 0.69 | Growth Rate (HEK-293T; [8]): 0.9; Growth Rate (Fibroblast; [1]): 0.34; Growth Rate (U2OS; [3]): 0.36; Growth Rate (U2OS; [4]): 0.28; Growth Rate (U2OS; [10]): 0.69
CCOc1nc2cccc(C(=O)O)c2n1Cc1ccc(-c2ccccc2-c2nnn[nH]2)cc1 | 0.52 | – | 0.94 | – | – | – | – | – | 0.54 | 0.77 | 0.71 | – | 0.56 | 0.8 | 0.89 | 0.45 | 0.58 | – | – | 0.99 | Growth Rate (HEK-293T; [1]): 0.86; Growth Rate (U2OS; [5]): 0.85
NC(=O)c1cccc(-c2cc(Nc3ccc(OC(F)(F)F)cc3)ncn2)c1 | – | -0.43 | 0.03 | 0.03 | 0.25 | 0.18 | 0.26 | 0.48 | – | -0.84 | 0.58 | -0.48 | 0.37 | -0.35 | -0.05 | 0.46 | – | 0.93 | 0.94 | – | Growth Rate (HEK-293T; [8]): 0.3; Growth Rate (Fibroblast; [8]): 0.53; Growth Rate (U2OS; [5]): 0.98
CCN1/C(=C/C(C)=O)Sc2ccc(OC(C)=O)cc21 | 0.37 | 0.5 | 0.44 | 0.29 | 0.41 | 0.49 | 0.49 | 0.53 | – | -0.38 | -0.29 | 0.14 | 0.41 | 0.17 | 0.38 | – | – | 0.97 | – | 0.89 | Growth Rate (HEK-293T; [1]): 0.98; Growth Rate (HEK-293T; [8]): 0.37; Growth Rate (U2OS; [1]): -0.53; Growth Rate (U2OS; [2]): -1; Growth Rate (U2OS; [10]): 0.93
CC(=O)Nc1cccc2c1c(Sc1ccc(Cl)cc1)c(C)n2CC(=O)O [AZD1981] | 0.75 | 0.62 | – | 0.62 | – | 0.83 | 0.71 | – | 0.38 | 0.15 | 0.04 | 0.35 | 0.14 | – | 0.73 | 0.26 | – | 0.89 | – | – | Growth Rate (Fibroblast; [8]): 0.25; Growth Rate (U2OS; [4]): 0.93; Growth Rate (U2OS; [10]): 0.95
COc1cc2nc(N(C)CCCNC(=O)C3CCCO3)nc(N)c2cc1OC.Cl (centres undefined) [ALFUZOSIN HYDROCHLORIDE] | 0.19 | 0.54 | – | – | – | 0.99 | 0.99 | 0.96 | 0.06 | – | 0.11 | – | 0.51 | – | 0.72 | 0.47 | 0.72 | 0.93 | 0.81 | 0.97 | Growth Rate (HEK-293T; [1]): 0.21; Growth Rate (Fibroblast; [1]): 0.72; Growth Rate (Fibroblast; [8]): 0.61; Growth Rate (U2OS; [1]): -0.55; Growth Rate (U2OS; [3]): 0.24; Growth Rate (U2OS; [4]): 0.85; Growth Rate (U2OS; [5]): 0.43
